Structures can show the parent of a compound that is named as a salt. Where two headings read alike, the source gives them in different places.

The target in one assay is T1, trypsin (Bos taurus, UniProt P00760).
T1 sequence (P00760 24-246): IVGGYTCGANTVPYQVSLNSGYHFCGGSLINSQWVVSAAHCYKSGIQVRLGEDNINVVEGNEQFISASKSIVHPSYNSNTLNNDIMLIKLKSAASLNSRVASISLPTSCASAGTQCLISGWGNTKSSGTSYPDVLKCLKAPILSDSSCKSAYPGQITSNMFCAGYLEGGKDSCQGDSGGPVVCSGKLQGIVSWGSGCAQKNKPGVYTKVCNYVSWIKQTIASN
Put plainly: in vitro trypsin inhibition, fluorogenic substrate benzoyl-Arg-7-amido-4-methylcoumalin. The class given is biochemical. Particulars: 0.2 M Tris-HCl, 0.02 M CaCl2, 0.005% Triton X-100, pH 8.0, 25°C, 60 minutes. An excerpt:
(§1) The method disclosed in JP-A-2-101017 was slightly modified and used for the measurement of the function of typical compounds belonging to the compound (I) of the present invention (Compounds 39, 3, 2, 26, 31 and 10) in terms of their in vitro activities to inhibit trypsin, thrombin, plasmin, factor Xa and elastase.
(§2) Substrate used for the enzyme reaction were: benzoyl-Arg-7-amido-4-methylcoumalin for trypsin, Boc-Val-Pro-Arg-7-amido-4-methylcoumalin for thrombin, Boc-Val-Leu-Lys-7-amido-4-methylcoumalin for plasmin, Boc-Ile-Glu-Gly-Arg-7-amido-4-methylcoumalin for factor Xa and methoxysuccinyl-Ala-Ala-Pro-Val-7-amido-4-methylcoumalin for elastase. […] Each enzyme reaction was carried out in 0.2 M Tris-HCl buffer supplemented with 0.02 M CaCl₂ and 0.005% Triton X-100 at pH 8.0 for trypsin, thrombin, plasmin and factor Xa or at pH 7.2 for elastase. Each sample solution to be measured was mixed with each enzyme solution and the reaction mixture was incubated at 25°C for 60 minutes in the case of trypsin or for 20 minutes in other cases of enzymes. In this instance, a compound disclosed in JP-A-51-138642 was used as a Comparative Example 1, and a compound disclosed in JP-A-63-165357 as a Comparative Example 2.

Another assay has as its target plasmin (Homo sapiens, UniProt P00747). Nature of the assay: in vitro plasmin inhibition, substrate Boc-Val-Leu-Lys-7-amido-4-methylcoumalin. The class given is biochemical.
Source text: as §1, §2

The next assay deals with factor Xa (Homo sapiens, UniProt P00742). Nature of the assay: in vitro factor Xa inhibition, substrate Boc-Ile-Glu-Gly-Arg-7-amido-4-methylcoumalin. In kind it is biochemical. Particulars: 0.2 M Tris-HCl, 0.02 M CaCl2, 0.005% Triton X-100, pH 8.0, 25°C, 20 minutes.
Another assay relates to male rats of Wistar line. Nature of the assay: caerulein-induced acute pancreatitis edema, prevention by oral administration. The class given is in vivo. Conditions: for Serum amylase / % Pancreas wt.: 15 minutes before caerulein (40 µg/kg i.p. twice); for Serum amylase: blood 6 hours after second caerulein; for % Pancreas wt.: pancreas wet weight to body weight, 6 hours after second caerulein. The protocol:
[…] Experiments were started at eight o'clock in the morning, with the animals in each group under satiation conditions. After measuring their body weights, caerulein pancreatitis was prepared by intraperitoneal administration of caerulein (mfd. by Kyowa Hakko K.K.) (40 μg/kg) twice at one hour interval. Six hours after the second administration, each rat was subjected to laparotomy to collect blood from the abdominal aorta and to excise the pancreas. […] Wet weight of the excised pancreas was measured and its ratio to the body weight was calculated. As a comparative example, the same process was repeated except that the inventive compound was replaced by the compound used in Pharmacological Trial 1 as Comparative Example 1, a compound which has been disclosed in JP-A-51-138642.

The target of another assay is thrombin (Homo sapiens, UniProt P00734). Nature of the assay: in vitro thrombin inhibition, substrate Boc-Val-Pro-Arg-7-amido-4-methylcoumalin. In kind it is biochemical. Particulars: 0.2 M Tris-HCl, 0.02 M CaCl2, 0.005% Triton X-100, pH 8.0, 25°C, 20 minutes.
The mark [1] stands for this setting: 100 mg/kg oral, caerulein alone 817 ± 103.
Where [2] appears, read: 100 mg/kg oral, caerulein alone 0.88 ± 0.07.
[3] abbreviates: 0.2 M Tris-HCl, 0.02 M CaCl2, 0.005% Triton X-100, pH 8.0, 25°C, 20 minutes.

Chain of factor Xa (P00742 235-488 limits assumed): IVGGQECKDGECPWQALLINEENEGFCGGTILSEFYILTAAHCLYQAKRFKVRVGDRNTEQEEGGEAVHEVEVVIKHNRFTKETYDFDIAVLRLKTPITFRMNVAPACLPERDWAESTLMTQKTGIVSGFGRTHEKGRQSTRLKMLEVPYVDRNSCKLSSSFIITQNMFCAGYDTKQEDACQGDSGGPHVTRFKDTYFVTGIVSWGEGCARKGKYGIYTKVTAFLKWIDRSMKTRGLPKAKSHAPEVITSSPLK
Chain of factor Xa (P00742 41-179 partner limits assumed): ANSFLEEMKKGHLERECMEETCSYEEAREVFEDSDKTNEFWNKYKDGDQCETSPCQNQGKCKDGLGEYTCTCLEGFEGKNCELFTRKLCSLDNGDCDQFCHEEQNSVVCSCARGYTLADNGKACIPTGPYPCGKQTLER
Chain of plasmin (P00747 581-810 limits assumed, species assumed): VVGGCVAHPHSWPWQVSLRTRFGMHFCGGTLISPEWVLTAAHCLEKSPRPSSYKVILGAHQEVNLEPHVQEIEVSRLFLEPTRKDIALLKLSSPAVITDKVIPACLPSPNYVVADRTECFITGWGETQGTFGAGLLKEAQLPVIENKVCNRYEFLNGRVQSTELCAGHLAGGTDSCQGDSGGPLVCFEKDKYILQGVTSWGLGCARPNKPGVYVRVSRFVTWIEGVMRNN
Chain of plasmin (P00747 97-580 partner limits assumed, species assumed): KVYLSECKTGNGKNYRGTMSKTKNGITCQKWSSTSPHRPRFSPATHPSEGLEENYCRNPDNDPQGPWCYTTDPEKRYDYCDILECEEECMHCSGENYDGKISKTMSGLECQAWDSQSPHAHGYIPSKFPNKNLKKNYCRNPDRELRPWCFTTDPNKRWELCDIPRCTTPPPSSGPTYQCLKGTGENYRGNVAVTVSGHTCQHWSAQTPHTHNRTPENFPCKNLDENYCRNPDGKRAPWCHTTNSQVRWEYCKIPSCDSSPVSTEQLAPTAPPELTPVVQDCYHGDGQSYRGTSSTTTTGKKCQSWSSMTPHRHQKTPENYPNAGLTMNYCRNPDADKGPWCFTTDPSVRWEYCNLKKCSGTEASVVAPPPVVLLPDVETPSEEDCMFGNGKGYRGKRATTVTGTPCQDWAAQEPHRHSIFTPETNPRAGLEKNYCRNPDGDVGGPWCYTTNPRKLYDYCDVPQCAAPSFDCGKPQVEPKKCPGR

Usually IC50 stands for the concentration that gives 50% inhibition. The low end stands for higher potency, the high end for lower potency. `CN(C)C(=O)COC(=O)Cc1ccc(OC(=O)c2ccc(NC(=N)N)cc2)cc1` [Comp. Ex. 1, reference compound]: the IC50 at trypsin worked out at 25 nM; on plasmin, 120 nM; against factor Xa, 56000 nM. The molecule also registered a Serum amylase in the assay with male rats of Wistar line (setting [1]) of 216 ± 7 IU/ml. The “% Pancreas wt.” value in the assay on male rats of Wistar line (setting [2]) turned out to be 0.47 ± 0.09%. In addition, in the assay with male rats of Wistar line (rat group of 100 mg oral administration, caerulein pancreatitis), the “histological observation of the pancreas (pancreatitis-specific signs)” value is reported as “decrease in the pancreatitis-specific signs, but the reducing effects were inferior to those of Compound 39”.
As to `N=C(N)Nc1ccc(C(=O)Oc2cc(Cl)cc(Cl)c2)cc1` [Comp. Ex. 2, reference compound], the 50% inhibitory concentration (IC50) against trypsin is 9.5 nM; at thrombin, 880 nM; against plasmin (setting [3]), 90 nM; against factor Xa it was 8500 nM.
For `N=C(N)Nc1ccc(C(=O)Oc2cccc(OC(F)(F)F)c2)cc1` [Compound 2, 3-trifluoromethoxyphenyl 4-guanidinobenzoate], in that order: 0.17 nM, 77 nM, 43 nM and 430 nM.
For `N=C(N)Nc1ccc(C(=O)Oc2ccc(OC(F)(F)F)cc2)cc1` [Compound 3, 4-trifluoromethoxyphenyl 4-guanidinobenzoate], in that order: 0.84 nM, 39 nM, 18 nM and 440 nM.
For `CON=C(C)c1cccc(OC(=O)c2ccc(NC(=N)N)cc2)c1` [Compound 10, 3-(1-methoxyiminoethyl)phenyl 4-guanidinobenzoate], in that order: 0.52 nM, 140 nM, 63 nM and 2500 nM.
For `CC1(C(=O)Oc2cc(Cl)cc(OC(=O)c3ccc(NC(=N)N)cc3)c2)CC1` [Compound 26, 3-chloro-5-(1-methylcyclopropylcarbonyloxy)phenyl 4-guanidinobenzoate methanesulfonic acid salt], the IC50 against trypsin was 0.25 nM; against thrombin, 69 nM; against plasmin (setting [3]), 15 nM; against factor Xa, 340 nM.
For `N=C(N)Nc1ccc(C(=O)Oc2cc(Cl)cc(OC(=O)C3CCCCC3)c2)cc1` [Compound 31, 3-chloro-5-cyclohexylcarbonyloxyphenyl 4-guanidinobenzoate], in that order: 0.47 nM, 580 nM, 10 nM and 3600 nM.
For `CS(=O)(=O)O.N=C(N)Nc1ccc(C(=O)Oc2cc(Cl)cc(OS(=O)(=O)C=Cc3ccccc3)c2)cc1` [Compound 39, 3-chloro-5-(β-styrenesulfonyloxy)phenyl 4-guanidinobenzoate methanesulfonic acid salt], the IC50 at trypsin was determined as 0.36 nM; against thrombin, 21 nM; against plasmin (setting [3]), 12 nM; on factor Xa it was 160 nM. Further, the Serum amylase with male rats of Wistar line (10 mg/kg oral, caerulein alone 817 ± 103, no treatment 134 ± 11) is given as 556 ± 31 IU/ml; with male rats of Wistar line (50 mg/kg oral, caerulein alone 817 ± 103) it was 362 ± 15 IU/ml; in the assay with male rats of Wistar line (setting [1]) it was 99 ± 17 IU/ml. Besides, the “% Pancreas wt.” value in the assay on male rats of Wistar line (10 mg/kg oral, caerulein alone 0.88 ± 0.07, no treatment 0.38 ± 0.06) came out at 0.99 ± 0.16%; in the assay on male rats of Wistar line (50 mg/kg oral, caerulein alone 0.88 ± 0.07) it was 0.66 ± 0.04%; with male rats of Wistar line (setting [2]), 0.39 ± 0.06%. Further, the “histological observation of the pancreas” value in the assay with male rats of Wistar line (rat groups of 10, 50 and 100 mg oral doses, caerulein pancreatitis) is “no evident appearance of vacuoles inside the acinic cells, and the appearance of interstitial edema was almost negligible”.

(Values after EP0486702A1, “PHENYL 4-GUANIDINOBENZOATE DERIVATIVE, PROCESS FOR PRODUCING THE SAME, AND PROTEASE INHIBITOR CONTAINING THE SAME” (Asahi Kasei Kogyo Kabushiki Kaisha, priority 1990, dated 1991).)
